The data set in a line: Solubility of SAM compounds in water, visual observation after standing at 25° C. for one day. Type of data set: physicochemical. As to conditions: for water solubility (summary in words): conclusion from Table 1; for solubility at 1 day: water, 25 °C, thermodynamic from solid, 25° C., one day, visual observation, read-out: Solubility (solvent (H2O) allowed to stand at 25° C. for one day). Here is the method: The mixtures were allowed to stand at 25° C. for one day, followed by observation. […] The symbol “x” indicates a resultant in which precipitation and sedimentation were observed, the symbol “Δ” indicates a resultant in which opacity was observed, and the symbol “◯” indicates a resultant having an achromatic and transparent color. • 16-Hydroxy-1-hexadecanethiol (Frontier Scientific) • 11-Hydroxy-1-undecanethiol (Aldrich) • 8-Hydroxy-1-octanethiol (Aldrich) • 6-Hydroxy-1-hexanethiol (Aldrich) • 11-Amino-1-undecanethiol, hydrochloride (Dojindo Laboratories) • 8-Amino-1-octanethiol, hydrochloride (Dojindo Laboratories) • 6-Amino-1-hexanethiol, hydrochloride (Dojindo Laboratories)

Read-outs that look alike come from different tables or passages of the source.

What is called solubility is how much of the substance goes into solution per volume.

Turning to `OCCCCCCS` [6-Hydroxy-1-hexanethiol], the “water solubility (summary in words)” value is given as “good water solubility”. The solubility at 1 day (SAM concentration 0.1 mM) was > 0.1 mM. The solubility at 1 day (SAM concentration 1 mM) was > 1 mM. Under “SAM concentration 5 mM”, the solubility at 1 day was > 5 mM. For the same compound, where the note is “SAM concentration 20 mM”, the solubility at 1 day was < 20 mM.

With `Cl.NCCCCCCCCCCCS` [11-Amino-1-undecanethiol, hydrochloride], the solubility at 1 day runs as follows: (SAM concentration 1 mM) < 1 mM; (SAM concentration 5 mM) < 5 mM; (SAM concentration 20 mM) < 20 mM.

Consider `OCCCCCCCCS` [8-Hydroxy-1-octanethiol], for which the “water solubility (summary in words)” value is “good water solubility”. Further, the solubility at 1 day (SAM concentration 0.1 mM) is > 0.1 mM. For the same compound, the solubility at 1 day (SAM concentration 1 mM) is > 1 mM. For the same compound, for the setting “SAM concentration 5 mM”, the solubility at 1 day is < 5 mM. The solubility at 1 day (SAM concentration 20 mM) is < 20 mM.

In the case of `OCCCCCCCCCCCS` [11-Hydroxy-1-undecanethiol], the solubility at 1 day reads like this: (SAM concentration 0.1 mM) < 0.1 mM; (SAM concentration 1 mM) < 1 mM; (SAM concentration 5 mM) < 5 mM; (SAM concentration 20 mM) < 20 mM.

Regarding `Cl.NCCCCCCCCS` [8-Amino-1-octanethiol, hydrochloride], the “water solubility (summary in words)” value is “good water solubility”. In addition, the solubility at 1 day (SAM concentration 0.1 mM) is > 0.1 mM. The solubility at 1 day (SAM concentration 1 mM) was > 1 mM. The solubility at 1 day (SAM concentration 5 mM) is > 5 mM. Where the note is “SAM concentration 20 mM”, the solubility at 1 day was > 20 mM.

Consider `Cl.NCCCCCCS` [6-Amino-1-hexanethiol, hydrochloride], for which the “water solubility (summary in words)” value is given as “good water solubility”. Moreover, the solubility at 1 day (SAM concentration 0.1 mM) was > 0.1 mM. Under “SAM concentration 1 mM”, the solubility at 1 day was > 1 mM. Besides, the solubility at 1 day (SAM concentration 5 mM) is > 5 mM. Moreover, the solubility at 1 day (SAM concentration 20 mM) was > 20 mM.

With `OCCCCCCCCCCCCCCCCS` [16-Hydroxy-1-hexadecanethiol], the solubility at 1 day is < 0.1 mM (SAM concentration 0.1 mM), < 1 mM (SAM concentration 1 mM), < 5 mM (SAM concentration 5 mM) and < 20 mM (SAM concentration 20 mM).
